The assay concerns ischemic skeletal muscle (gastrocnemius-plantaris-soleus group). The assay can be described thus: Contractility of the skeletal muscle after chronic ischemia (PVD fatigue model). Type of assay: in vivo, male Wistar rats. To be noted: PVD fatigue model: 6 mg/kg po, 7 days; after 5 minutes of stimulation, 24 h after last administration. The source says:
B) Action on the contractility of the skeletal muscle after chronic ischemia Ideas about the pathophysiology of chronic peripheral arterial occlusive disease have changed in recent years as interest has shifted increasingly from the macrocirculation to the microcirculation=disorders in the microcirculation manifest themselves in an inadequate supply of substrates with consequent tissue ischemia, which in turn leads to impairment of the function of the extremity in question. The compounds according to the invention were tested for their function-improving action by means of measurements of the contractile force in the ischemic skeletal muscle using the experimental set-up described below. The experimental animals used were male Wistar rats with a body weight of 380 to 410 g. With the animals under hexobarbital narcosis (®[…] Sodium, 200 mg/kg body weight ip), a monolateral ligature of the right femoral artery was made in the groin. After dusting with penicillin sulfonamide powder for the antibiotic protection of the wound, the small surgical wound was closed and the animals were observed continuously until fully awake. One week later, oral administration of the substance with a stomach tube was started (6 mg/kg body weight, carboxymethyl cellulose sodium suspension) and was continued for 7 days (single administration per day, ca. 7.30 am to 8.30 am). The contractile force was measured 24 h after the last administration of the substance so as to exclude acute effects, the experimental protocol being as follows: The animals were narcotized with ®Nembutal (pentobarbital sodium, 35 mg/kg body weight ip), the muscles of the extremity in question were exposed (gastrocnemius-plantaris-soleus group) and the tendon was connected to a force transducer with a preload of 50 g. A superfusion with isotonic solution (37° C.) served to avoid dehydration and cooling. The mean arterial blood pressure was recorded continuously via a cannulated carotid artery with the aid of a hemodynamometer in order to monitor the physiological state of the animals during the experiment. All the animals breathed spontaneously through an inserted endotracheal tube. After these preparations had been made, the muscle was caused to contract by direct electrical stimulation (2.5 mA, 2 Hz) (Stimulator I, Hugo Sachs, Federal Republic of Germany). The measurement parameter used for the action of the preparation was the absolute contractile force in grams after 5 minutes of stimulation. The change in the contractile force in comparison with the ischemic control muscle is given as the percentage change at this time (see Table 2).

Turning to `Cl.Cn1c(=O)[nH]c2c(c1=O)CN(Cc1ccccc1)CC2` [Compound 2, 6-Benzyl-3-methyl-5,6,7,8-tetrahydro-1H-pyrido[4,3-d]-pyrimidine-2,4-dione hydrochloride], the “Change in the contractile force in comparison with the ischemic control muscle” value was “+136%”.
The entry for `Cn1c(=O)[nH]c2c(c1=O)CN(C(C(=O)O)c1ccccc1Cl)CC2` (stereo not shown) [Compound 20] is “+137%”; for `Cn1c(=O)[nH]c2c(c1=O)CN(CCO)CC2` [Compound 8, 6-(2-Hydroxyethyl)-3-methyl-5,6,7,8-tetrahydro-1H-pyrido[4,3-d]pyrimidine-2,4-dione] it is “+151%”.
With `O=c1[nH]c2c(c(=O)[nH]1)CN(Cc1ccccc1)CC2` [Compound 23] the entry was “+129%”; with `CCn1c2c(c(=O)n(C)c1=O)CN(Cc1ccccc1Cl)CC2` [Compound 16], “+148%”; with `Cn1c(=O)[nH]c2c(c1=O)CN(CCCO)CC2` [Compound 37], “+45%”.
The entry for `C=C(C)CN1CCc2[nH]c(=O)n(C)c(=O)c2C1` [Compound 26] is “+114%”.

The values above are taken from patent publication US5556854A, “Pyridopyrimidinediones, processes for their preparation and their use as drugs” (Hoechst Aktiengesellschaft, priority 1993, dated 1996).
